Assay results reported in the NIST ThermoML archive (doi:10.1021/je049848j).
Numbers after ± are expanded uncertainties.

Experiments:
[1] = Liquid; for mass density: 293 K, 101.33 kPa, Vibrating tube method; for Normal boiling temperature: Fischer boiling apparatus
[2] = refractive index (Na D-line) (dimensionless); details: 293 K; 101.33 kPa; Liquid; Standard Abbe refractometry

mass density [1] [kg/m3] | Normal boiling temperature [1] [°C] | refractive index [2] | SMILES
1049.5 ± 0.5 | 117.70 ± 0.2 | 1.372 ± 0.0011 | CC(=O)O [acetic acid]
969.2 ± 0.9 | 172.60 ± 0.2 | 1.4398 ± 0.0011 | CC(=O)OC1CCCCC1 [cyclohexyl ethanoate]
814 ± 0.5 | 138.00 ± 0.2 | 1.4104 ± 0.0011 | CCCCCO [pentan-1-ol]
992.5 ± 0.5 | 140.90 ± 0.2 | 1.3811 ± 0.0011 | CCC(=O)O [propanoic acid]

SMILES | mass density [1] [kg/m3] | Normal boiling temperature [1] [°C] | refractive index [2]
Cc1ccccc1 [toluene] | 867.3 ± 0.5 | 110.30 ± 0.2 | 1.496 ± 0.0011
